Laboratory results: ChEMBL document CHEMBL1201862, “PubChem BioAssay data set” (2004)
Active and inactive are the calls of the source.

How the values were obtained:
[1] = biological target: Sphingosine 1-phosphate receptor 2 (Homo sapiens, UniProt O95136); assay: Late-stage fluorescence-based dose-response cell-based counterscreen assay to identify agonists of the Sphingosine 1-Phosphate Receptor 3 (S1P3): Sphingosine 1-Phosphate Receptor 2 (S1P2) agonist assay.; assay type: functional
[2] = biological target: Sphingosine 1-phosphate receptor 4 (Homo sapiens, UniProt O95977); assay: Late-stage fluorescence-based dose-response cell-based counterscreen assay to identify agonists of the Sphingosine 1-Phosphate Receptor 3 (S1P3): Sphingosine 1-Phosphate Receptor 4 (S1P4) agonist assay.; assay type: functional
[3] = biological target: Melanocortin receptor 4 (Homo sapiens, UniProt P32245); assay: inhibitors of MC4R cAMP signaling – cell-based, TR-FRET, biased antagonists, dose response (AID 602298); assay type: functional;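 note: antagonist potency against agonist-stimulated cAMP production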
[4] = cAMP pathway inhibition in counterscreen cell line – TR-FRET cAMP detection, counter-screen for MC4R biased antagonist project, dose response (AID 602305); assay type: functional, cell-based;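 note: U2OS cells stimulated with forskolin near its EC80 as the cAMP inducer; potency is for inhibition of forskolin-stimulated cAMP signaling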
[5] = biological target: T1, Fatty acid synthase (Homo sapiens, UniProt P49327); assay: inhibition of human FAS-TE enzyme activity – biochemical, kinetic fluorescence intensity, dose response (AID 624326); assay type: functional;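 note: rate of fluorescence rise from hydrolysis of a fluorogenic O-methyl fluorescein ester substrate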
[6] = biological target: T1, Fatty acid synthase; assay: inhibition of human FAS-TE enzyme activity – biochemical, endpoint fluorescence intensity, uHTS hits, dose response (AID 624327); assay type: functional;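 note: fluorescence from hydrolysis of an O-methyl fluorescein acyl ester substrate by the enzyme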
[7] = biological target: T2, Sentrin-specific protease 8 (Homo sapiens, UniProt Q96LD8); assay: inhibition of human SENP8 cleavage activity – biochemical, luminescence, SAR follow-up (AID 504501); assay type: functional
T2 sequence (Q96LD8 whole entry): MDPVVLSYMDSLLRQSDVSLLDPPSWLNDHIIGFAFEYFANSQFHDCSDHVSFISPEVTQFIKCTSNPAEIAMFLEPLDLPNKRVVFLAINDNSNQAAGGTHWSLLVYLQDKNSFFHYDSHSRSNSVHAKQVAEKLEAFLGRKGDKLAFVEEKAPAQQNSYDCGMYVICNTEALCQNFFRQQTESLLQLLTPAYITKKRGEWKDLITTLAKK

[8] = biological target: T3, Sentrin-specific protease 7 (Homo sapiens, UniProt Q9BQF6); assay: inhibition of human SENP7 cleavage activity – biochemical, luminescence, SAR follow-up (AID 504497); assay type: functional
T3 sequence (Q9BQF6 whole entry): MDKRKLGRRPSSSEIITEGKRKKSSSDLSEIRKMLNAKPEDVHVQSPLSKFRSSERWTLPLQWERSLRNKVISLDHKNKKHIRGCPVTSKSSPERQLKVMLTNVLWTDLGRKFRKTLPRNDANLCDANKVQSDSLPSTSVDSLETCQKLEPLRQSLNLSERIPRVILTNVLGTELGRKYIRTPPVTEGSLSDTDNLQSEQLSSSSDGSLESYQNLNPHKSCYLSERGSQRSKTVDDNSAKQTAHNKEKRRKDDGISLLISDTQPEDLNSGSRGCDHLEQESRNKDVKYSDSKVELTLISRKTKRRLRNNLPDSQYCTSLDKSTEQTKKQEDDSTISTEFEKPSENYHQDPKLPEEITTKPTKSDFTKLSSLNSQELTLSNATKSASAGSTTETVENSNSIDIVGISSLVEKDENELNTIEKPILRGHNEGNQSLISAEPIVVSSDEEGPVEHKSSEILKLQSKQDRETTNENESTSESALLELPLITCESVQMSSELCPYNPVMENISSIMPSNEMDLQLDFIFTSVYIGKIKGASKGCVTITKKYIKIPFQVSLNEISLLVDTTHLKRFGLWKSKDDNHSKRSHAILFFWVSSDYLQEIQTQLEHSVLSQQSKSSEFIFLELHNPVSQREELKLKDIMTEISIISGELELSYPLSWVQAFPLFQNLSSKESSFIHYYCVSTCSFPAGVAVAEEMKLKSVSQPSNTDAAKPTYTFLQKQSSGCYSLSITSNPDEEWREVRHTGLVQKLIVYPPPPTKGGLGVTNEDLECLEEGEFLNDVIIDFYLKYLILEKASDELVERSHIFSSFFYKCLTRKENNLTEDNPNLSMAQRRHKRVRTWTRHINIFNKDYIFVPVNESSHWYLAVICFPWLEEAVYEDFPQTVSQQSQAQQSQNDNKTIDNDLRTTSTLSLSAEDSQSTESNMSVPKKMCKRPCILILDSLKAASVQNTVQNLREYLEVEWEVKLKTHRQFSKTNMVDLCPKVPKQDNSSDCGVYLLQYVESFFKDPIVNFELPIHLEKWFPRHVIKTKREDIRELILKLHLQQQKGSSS

[9] = biological target: T4, Caspase-3 (Homo sapiens, UniProt P42574); assay: SAR Analysis of small molecule inhibitors of Sentrin-specific proteases (SENPs) using a Caspase-3 Selectivity assay. [Related pubchem assays (depositor defined):AID2540, AID2599, AID434973, AID489001]; assay type: functional
T4 sequence (P42574 whole entry): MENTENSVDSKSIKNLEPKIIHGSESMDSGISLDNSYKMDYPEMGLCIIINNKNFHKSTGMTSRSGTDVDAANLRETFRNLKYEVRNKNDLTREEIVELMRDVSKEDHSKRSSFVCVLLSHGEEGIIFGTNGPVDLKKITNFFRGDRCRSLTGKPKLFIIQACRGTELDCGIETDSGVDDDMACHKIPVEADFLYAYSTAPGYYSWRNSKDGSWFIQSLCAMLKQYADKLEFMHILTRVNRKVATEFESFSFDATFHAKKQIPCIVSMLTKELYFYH

[10] = biological target: T3, Sentrin-specific protease 7; assay: inhibition of human SENP7 cleavage activity – biochemical, luminescence, set 2, SAR follow-up (AID 588600); assay type: functional
[11] = biological target: T2, Sentrin-specific protease 8; assay: inhibition of sentrin protease 8 – biochemical, luminescence, set 2, SAR follow-up (AID 588601); assay type: functional
[12] = biological target: T4, Caspase-3; assay: inhibition of recombinant caspase-3 activity – biochemical, luminescence, set 2, selectivity assay for SENP protease inhibitor project, SAR follow-up (AID 588599); assay type: functional
[13] = biological target: T5, Sentrin-specific protease 6 (Homo sapiens, UniProt Q9GZR1); assay: SAR Analysis of small molecule inhibitors of Sentrin-specific protease 6 (SENP6) using a Luminescent assay. [Related pubchem assays (depositor defined):AID2582, AID2599]; assay type: functional
T5 sequence (Q9GZR1 whole entry): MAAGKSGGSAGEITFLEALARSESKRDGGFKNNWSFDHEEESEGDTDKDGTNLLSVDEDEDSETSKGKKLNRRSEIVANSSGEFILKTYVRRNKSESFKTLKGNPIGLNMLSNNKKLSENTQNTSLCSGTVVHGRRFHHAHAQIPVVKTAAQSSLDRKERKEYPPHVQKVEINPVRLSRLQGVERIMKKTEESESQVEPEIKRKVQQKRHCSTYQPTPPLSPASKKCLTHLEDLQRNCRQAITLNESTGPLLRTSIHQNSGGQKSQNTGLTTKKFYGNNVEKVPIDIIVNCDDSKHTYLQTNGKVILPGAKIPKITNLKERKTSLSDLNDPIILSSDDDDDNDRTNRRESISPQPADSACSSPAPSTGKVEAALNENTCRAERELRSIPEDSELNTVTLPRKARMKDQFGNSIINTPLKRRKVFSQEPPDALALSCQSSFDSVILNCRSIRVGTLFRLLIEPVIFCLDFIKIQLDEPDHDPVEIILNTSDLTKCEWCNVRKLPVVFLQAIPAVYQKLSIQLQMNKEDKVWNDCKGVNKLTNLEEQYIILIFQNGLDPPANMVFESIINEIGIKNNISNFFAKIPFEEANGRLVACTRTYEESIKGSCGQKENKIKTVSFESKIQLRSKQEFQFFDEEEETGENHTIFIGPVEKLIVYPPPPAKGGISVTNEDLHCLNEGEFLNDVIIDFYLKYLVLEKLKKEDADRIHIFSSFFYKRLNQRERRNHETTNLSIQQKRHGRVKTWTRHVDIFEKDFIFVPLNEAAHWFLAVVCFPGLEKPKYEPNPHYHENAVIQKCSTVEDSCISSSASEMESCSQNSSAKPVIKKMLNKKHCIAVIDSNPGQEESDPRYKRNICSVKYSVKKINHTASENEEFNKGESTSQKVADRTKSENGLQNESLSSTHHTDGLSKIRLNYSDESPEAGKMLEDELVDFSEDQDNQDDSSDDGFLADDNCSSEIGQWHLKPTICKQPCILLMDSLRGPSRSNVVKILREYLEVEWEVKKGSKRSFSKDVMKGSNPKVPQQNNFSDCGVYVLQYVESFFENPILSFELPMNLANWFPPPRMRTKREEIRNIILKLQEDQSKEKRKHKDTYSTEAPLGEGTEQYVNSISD

[14] = biological target: T5, Sentrin-specific protease 6; assay: inhibition of human SENP6 catalytic domain – biochemical, luminescence, set 2, SAR follow-up (AID 588598); assay type: functional
[15] = biological target: Melanin-concentrating hormone receptor 1 (Homo sapiens, UniProt Q99705); assay: Late-stage fluorescence-based counterscreen for antagonists of the G-protein coupled receptor 7 (GPR7): cell-based dose response assay to identify antagonists of the melanin-concentrating hormone receptor 1 (MCHR1) Set 5.; assay type: functional
[16] = biological target: Neuropeptides B/W receptor type 1 (Homo sapiens, UniProt P48145); assay: human NPBW1 receptor blockade, IC50 – cell-based, fluorescence, dose response, set 5, late-stage follow-up (AID 588566); assay type: functional
[17] = biological target: Dual specificity protein kinase CLK4 (Homo sapiens, UniProt Q9HAZ1); assay type: functional
[18] = biological target: Serine/threonine-protein kinase PAK 1 (Homo sapiens, UniProt Q13153); assay type: functional
[19] = biological target: Mitogen-activated protein kinase kinase kinase kinase 4 (Homo sapiens, UniProt O95819); assay type: functional
[20] = biological target: Mitogen-activated protein kinase kinase kinase kinase 5 (Homo sapiens, UniProt Q9Y4K4); assay type: functional;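 note: measured as one member of a kinome-spanning kinase panel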
[21] = biological target: MAP kinase-interacting serine/threonine-protein kinase 2 (Homo sapiens, UniProt Q9HBH9); assay type: functional
[22] = biological target: Interleukin-1 receptor-associated kinase 4 (Homo sapiens, UniProt Q9NWZ3); assay type: functional
[23] = biological target: T6, Insulin-degrading enzyme (Homo sapiens, UniProt P14735); assay: recombinant IDE activation, cell-free – biochemical, fluorescence polarization, counter-screen for IDE activator project, dose response (AID 588681)
[24] = system: CHO; assay: CHO cell viability loss, potency – luminescence, cytotoxicity control for TLR9-MyD88 binding inhibitor project, dose response (AID 588339); assay type: functional, cell-based, hamster; conditions: Cricetulus griseus;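 note: CHO cells stably coexpressing TLR9 and MyD88 fusions from primary screen; compound exposure lasted 48 hours before viability readout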
[25] = biological target: Beta Lactamase (Pseudomonas aeruginosa, UniProt Q932Y6); assay: BLA reporter interference, concentration series – BLA reporter cells, FRET fluorescence, artefact control for TLR9-MyD88 binding inhibitor project, dose response (AID 588341); assay type: cell-based;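 note: cell based assay in CHO-K1 cells stably expressing beta-lactamase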
[26] = biological target: T6, Insulin-degrading enzyme; assay: cellular IDE activation of Abeta substrate cleavage – fluorescence polarization, HEK cells, dose response (AID 588439); assay type: functional, cell-based
[27] = system: HEK293; assay: membrane integrity loss in HEK cells – cell-based, fluorescence, cytotoxicity control for IDE activator project, dose response (AID 588440); assay type: functional; conditions: Homo sapiens;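 note: cytotoxicity by LDH release measuring loss of membrane integrity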
[28] = system: HEK293; assay: optical interference in Abeta FP readout, dose response, artefact control for IDE activator project, biochemical, fluorescence polarization (AID 588442); assay type: functional, cell-based; conditions: Homo sapiens
[29] = Luminescence Cell-Based Dose Retest to Confirm Inhibitors of Cancer Stem Cells. [Related pubchem assays (depositor defined):AID2717, AID2721]; assay type: functional; conditions: Homo sapiens
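Throughout, for AC50: cells exposed to compound for roughly 70 hours or longer before luminescence read.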

T6 sequence (P14735 whole entry, the tested form may be a part): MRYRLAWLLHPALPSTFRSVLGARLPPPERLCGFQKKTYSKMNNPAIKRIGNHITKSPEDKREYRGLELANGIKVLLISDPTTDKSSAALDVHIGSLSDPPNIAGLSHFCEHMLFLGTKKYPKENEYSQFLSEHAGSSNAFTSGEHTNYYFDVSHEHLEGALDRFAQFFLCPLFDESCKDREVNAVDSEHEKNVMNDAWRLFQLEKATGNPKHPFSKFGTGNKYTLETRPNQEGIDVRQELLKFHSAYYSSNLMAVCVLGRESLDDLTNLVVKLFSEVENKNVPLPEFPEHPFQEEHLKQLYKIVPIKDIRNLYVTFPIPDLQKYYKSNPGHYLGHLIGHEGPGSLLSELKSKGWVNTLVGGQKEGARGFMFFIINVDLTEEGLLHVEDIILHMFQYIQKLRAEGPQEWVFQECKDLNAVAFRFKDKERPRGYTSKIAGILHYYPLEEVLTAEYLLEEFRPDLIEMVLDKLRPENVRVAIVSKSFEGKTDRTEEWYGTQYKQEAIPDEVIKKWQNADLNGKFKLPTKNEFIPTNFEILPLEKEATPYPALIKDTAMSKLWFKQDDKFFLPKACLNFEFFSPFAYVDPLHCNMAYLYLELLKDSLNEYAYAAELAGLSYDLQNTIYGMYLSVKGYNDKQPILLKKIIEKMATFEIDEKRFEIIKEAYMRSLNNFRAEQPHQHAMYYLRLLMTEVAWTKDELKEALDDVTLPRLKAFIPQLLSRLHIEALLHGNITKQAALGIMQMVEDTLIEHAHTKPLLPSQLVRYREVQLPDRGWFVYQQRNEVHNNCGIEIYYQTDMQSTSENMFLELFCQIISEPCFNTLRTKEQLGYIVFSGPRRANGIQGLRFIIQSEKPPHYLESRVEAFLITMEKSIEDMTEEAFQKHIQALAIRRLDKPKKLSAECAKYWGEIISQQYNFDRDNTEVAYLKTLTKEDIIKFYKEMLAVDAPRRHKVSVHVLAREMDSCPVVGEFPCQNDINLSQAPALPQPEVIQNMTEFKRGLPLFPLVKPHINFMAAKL
T1 sequence (P49327 whole entry): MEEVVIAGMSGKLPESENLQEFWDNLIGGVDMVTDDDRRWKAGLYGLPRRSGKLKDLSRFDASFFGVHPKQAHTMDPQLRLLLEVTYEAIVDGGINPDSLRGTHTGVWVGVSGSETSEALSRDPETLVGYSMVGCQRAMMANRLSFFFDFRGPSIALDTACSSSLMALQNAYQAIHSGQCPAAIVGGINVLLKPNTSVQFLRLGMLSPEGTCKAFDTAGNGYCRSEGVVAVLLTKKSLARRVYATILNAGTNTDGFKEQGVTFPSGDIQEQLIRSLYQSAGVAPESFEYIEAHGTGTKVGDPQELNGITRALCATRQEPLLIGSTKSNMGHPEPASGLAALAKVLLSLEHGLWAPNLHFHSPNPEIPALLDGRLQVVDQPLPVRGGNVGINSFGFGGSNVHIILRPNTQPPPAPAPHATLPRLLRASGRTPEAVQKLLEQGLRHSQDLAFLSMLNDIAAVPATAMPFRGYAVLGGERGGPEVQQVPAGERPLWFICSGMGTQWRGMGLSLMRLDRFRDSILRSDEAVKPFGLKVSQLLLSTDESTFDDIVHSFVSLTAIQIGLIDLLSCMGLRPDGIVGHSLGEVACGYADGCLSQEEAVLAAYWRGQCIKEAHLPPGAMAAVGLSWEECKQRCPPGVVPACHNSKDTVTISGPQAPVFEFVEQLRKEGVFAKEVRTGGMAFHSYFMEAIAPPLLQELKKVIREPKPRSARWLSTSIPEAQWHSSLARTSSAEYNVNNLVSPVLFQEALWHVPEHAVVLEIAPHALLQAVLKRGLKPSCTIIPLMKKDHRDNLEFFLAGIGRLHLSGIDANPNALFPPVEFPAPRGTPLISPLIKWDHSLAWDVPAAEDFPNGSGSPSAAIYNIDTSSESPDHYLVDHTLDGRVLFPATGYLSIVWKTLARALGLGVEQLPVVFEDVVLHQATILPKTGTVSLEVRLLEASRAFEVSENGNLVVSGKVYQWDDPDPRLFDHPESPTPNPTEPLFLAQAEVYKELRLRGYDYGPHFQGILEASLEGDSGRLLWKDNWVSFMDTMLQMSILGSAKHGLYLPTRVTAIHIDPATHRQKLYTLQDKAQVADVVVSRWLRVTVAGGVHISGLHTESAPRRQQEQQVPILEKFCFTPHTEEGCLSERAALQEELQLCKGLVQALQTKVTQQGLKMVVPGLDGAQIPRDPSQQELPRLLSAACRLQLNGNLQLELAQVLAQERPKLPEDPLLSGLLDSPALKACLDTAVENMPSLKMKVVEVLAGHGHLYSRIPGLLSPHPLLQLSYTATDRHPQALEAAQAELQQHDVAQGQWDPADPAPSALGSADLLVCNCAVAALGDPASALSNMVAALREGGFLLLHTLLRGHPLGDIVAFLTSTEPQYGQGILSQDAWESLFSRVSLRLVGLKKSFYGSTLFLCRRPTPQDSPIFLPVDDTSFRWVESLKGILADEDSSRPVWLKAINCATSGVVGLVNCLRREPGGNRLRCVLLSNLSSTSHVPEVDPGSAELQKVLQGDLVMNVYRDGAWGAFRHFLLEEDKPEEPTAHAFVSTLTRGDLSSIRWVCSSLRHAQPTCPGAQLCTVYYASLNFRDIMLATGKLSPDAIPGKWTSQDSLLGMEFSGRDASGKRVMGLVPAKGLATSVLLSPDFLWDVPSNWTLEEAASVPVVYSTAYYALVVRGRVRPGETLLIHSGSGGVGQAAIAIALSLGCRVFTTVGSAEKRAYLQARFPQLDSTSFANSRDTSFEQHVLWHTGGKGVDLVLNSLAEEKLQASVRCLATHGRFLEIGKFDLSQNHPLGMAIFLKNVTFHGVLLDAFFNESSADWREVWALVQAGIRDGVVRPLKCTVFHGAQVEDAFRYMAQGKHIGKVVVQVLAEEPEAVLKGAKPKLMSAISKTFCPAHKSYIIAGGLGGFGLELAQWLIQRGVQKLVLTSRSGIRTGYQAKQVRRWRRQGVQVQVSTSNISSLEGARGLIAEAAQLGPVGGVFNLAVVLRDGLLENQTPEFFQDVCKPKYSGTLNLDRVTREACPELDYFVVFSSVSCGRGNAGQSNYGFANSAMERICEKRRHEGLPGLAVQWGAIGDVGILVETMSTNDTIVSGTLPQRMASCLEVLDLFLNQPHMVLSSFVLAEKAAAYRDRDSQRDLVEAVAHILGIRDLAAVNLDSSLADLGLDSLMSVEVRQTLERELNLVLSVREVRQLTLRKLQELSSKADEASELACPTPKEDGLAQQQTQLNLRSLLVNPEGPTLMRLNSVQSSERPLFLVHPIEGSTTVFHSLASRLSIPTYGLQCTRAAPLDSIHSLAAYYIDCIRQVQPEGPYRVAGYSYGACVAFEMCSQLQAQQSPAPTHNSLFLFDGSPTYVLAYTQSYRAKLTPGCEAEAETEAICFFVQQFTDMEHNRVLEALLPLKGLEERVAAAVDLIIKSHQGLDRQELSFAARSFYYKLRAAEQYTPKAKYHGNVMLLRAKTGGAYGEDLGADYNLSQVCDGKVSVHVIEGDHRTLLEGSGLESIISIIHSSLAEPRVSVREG
Sequence of Interleukin-1 receptor-associated kinase 4 (Q9NWZ3 whole entry): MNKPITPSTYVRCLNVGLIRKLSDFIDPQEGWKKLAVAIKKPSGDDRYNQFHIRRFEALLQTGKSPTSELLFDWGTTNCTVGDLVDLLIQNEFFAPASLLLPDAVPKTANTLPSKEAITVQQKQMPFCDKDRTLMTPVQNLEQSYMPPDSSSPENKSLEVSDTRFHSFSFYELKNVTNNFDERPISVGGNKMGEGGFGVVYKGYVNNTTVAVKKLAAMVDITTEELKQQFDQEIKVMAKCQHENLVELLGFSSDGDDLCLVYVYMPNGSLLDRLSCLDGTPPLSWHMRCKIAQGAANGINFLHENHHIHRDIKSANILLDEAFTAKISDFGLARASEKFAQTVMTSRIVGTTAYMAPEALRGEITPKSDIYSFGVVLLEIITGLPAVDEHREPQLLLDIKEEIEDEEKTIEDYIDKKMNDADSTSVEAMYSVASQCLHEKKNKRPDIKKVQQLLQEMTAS
Sequence of Sphingosine 1-phosphate receptor 4 (O95977 whole entry): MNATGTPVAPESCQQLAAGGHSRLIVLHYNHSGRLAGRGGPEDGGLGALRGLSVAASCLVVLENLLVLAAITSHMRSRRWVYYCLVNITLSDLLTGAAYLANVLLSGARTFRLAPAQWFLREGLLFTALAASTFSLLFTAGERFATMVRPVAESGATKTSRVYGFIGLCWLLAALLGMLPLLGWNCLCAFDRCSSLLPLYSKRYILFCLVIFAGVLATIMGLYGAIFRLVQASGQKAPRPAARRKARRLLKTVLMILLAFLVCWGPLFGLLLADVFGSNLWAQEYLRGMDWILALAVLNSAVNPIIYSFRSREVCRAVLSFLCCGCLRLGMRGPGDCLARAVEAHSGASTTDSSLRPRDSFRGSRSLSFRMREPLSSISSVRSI
Sequence of Neuropeptides B/W receptor type 1 (P48145 whole entry): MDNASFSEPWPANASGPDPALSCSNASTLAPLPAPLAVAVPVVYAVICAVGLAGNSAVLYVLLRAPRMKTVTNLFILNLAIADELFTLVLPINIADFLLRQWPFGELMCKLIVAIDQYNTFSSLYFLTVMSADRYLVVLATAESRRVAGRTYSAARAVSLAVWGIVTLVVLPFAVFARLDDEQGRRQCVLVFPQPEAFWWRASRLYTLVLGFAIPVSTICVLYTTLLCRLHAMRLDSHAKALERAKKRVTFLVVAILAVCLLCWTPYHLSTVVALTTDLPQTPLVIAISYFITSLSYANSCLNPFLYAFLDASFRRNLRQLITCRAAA
Sequence of Melanocortin receptor 4 (P32245 whole entry): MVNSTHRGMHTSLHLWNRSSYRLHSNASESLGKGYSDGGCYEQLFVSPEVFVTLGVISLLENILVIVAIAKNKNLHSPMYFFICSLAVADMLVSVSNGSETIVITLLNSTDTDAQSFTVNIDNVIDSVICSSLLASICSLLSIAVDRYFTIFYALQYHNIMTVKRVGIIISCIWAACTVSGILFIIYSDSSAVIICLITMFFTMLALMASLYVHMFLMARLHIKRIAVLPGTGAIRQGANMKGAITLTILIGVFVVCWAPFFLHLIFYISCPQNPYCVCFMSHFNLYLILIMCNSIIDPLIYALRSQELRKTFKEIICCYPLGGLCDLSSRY

With `CCCc1cc(C(=O)NC2CCCCC2)no1` the EC50 [1] was > 50 µM (inactive) and the EC50 [2] was > 50 µM (inactive).
For `O=C(Oc1ccccc1C(=O)Nc1ccccc1)c1ccc(Br)c([N+](=O)[O-])c1`, the IC50 [3] was > 64.6 µM (inactive), the IC50 [4] was > 64.6 µM (inactive) and the IC50 [5] was 5.97 µM (active). The IC50 [6] was 4.66 µM (active).
With `O=C(Nc1nc2c(F)cccc2s1)c1cccs1` the IC50 [7] was 4.1 µM (active), the IC50 [8] was 2 µM (active) and the IC50 [9] was 3.6 µM (active). The IC50 [10] was 2.7 µM (active), the IC50 [11] was 2.66 µM (active) and the IC50 [12] was 3.68 µM (active). For the same compound, the IC50 [13] was 3.5 µM (active) and the IC50 [14] was 3.02 µM (active).
In the case of `CCOc1ccc(Oc2c(S(C)(=O)=O)cnn(Cc3cccc4ccccc34)c2=O)cc1`, the IC50 [15] is reported as 0.804 µM (active) and the IC50 [16] is reported as 2.55 µM (active).
In the case of `CC(=O)c1cccc(-c2cnc3ccccc3c2)c1`, the Ki [17] is reported as 3.98 µM (active), the Ki [18] is reported as > 10 µM (inactive) and the Ki [19] is reported as 1.26 µM (active). For the same compound, the Ki [20] was 1 µM (active), the Ki [21] was 6.31 µM (active) and the Ki [22] was > 10 µM (inactive).
In the case of `CCCCCCSc1cc(-c2nc3cnccn3c2NCCCC)ccc1OC`, the EC50 [23] is reported as > 54.7 µM (inactive), the IC50 [24] is reported as 21.2 µM (inactive) and the IC50 [25] is reported as 7.42 µM (active). For the same compound, the EC50 [26] was 13.9 µM (inactive), the IC50 [27] was 33.6 µM (inactive) and the EC50 [28] was > 56 µM (inactive). The AC50 [29] was 4.56 µM (active).
